Data: patent publication US20100210649A1, “PYRIDAZINONES AND FURAN-CONTAINING COMPOUNDS” (Sloan-Kettering Institute for Cancer Research, priority 2006, published 2010)
Read-outs that look alike come from different tables or passages of the source.

Key:
in vitro = conditions: human
A549 = assay: Dose response study (Alamar Blue), A549; format: cell-based; conditions: Homo sapiens; A549; 12 point doubling dilution 10 uM to 5 nM; 48 h treatment, alamar blue additional 48 h; read-out: IC50 A549
Procedure: (§1) Dose response studies against 34 compounds from the pyridazinone and phenylfuran-carboxamide class were conducted. […] In addition, Tarceva was included in these dose response studies.
(§2) The dose response studies were done with the following standard procedure. First, the cells were counted and dispensed at 250 cells/well into 384-well microplates with compound. The cells were incubated for 48 hours at 37 C to complete treatment, and then alamar blue was added for an additional 48 hours. Finally, alamar blue reduction was measured and the data was loaded into ORIS, our data screening acquisition platform.

H460 = assay: Dose response study (Alamar Blue), H460; format: cell-based; conditions: Homo sapiens, NCI-H460; H460; 12 point doubling dilution 10 uM to 5 nM; 48 h treatment, alamar blue additional 48 h; read-out: IC50 H460
Procedure: as §1, §2

H358 = assay: Non Small Cell Lung Cancer proliferation assay (Alamar Blue reduction), H358; format: cell-based; conditions: Homo sapiens, NCI-H358
Procedure: These cells have a doubling time of 1-2 days. All cell types are adherent and grow in colonies. The cells should be kept at a density between 50,000 cells/mL -500,000 cells/mL to provide for optimum growth and adequate nutrition. The cell line should be maintained at 37° C. in a humidified atmosphere with 5% CO2 in a sterile cell culture incubator.
Non Small Cell Lung Cancer Proliferation Assay.
High Controls for this assay are made by treating Non Small Cell Lung Cancer cells with 5 ul of 10% DMSO. [Final concentration in this assay is 1% DMSO].
Important Note: All compounds for testing in this assay should be done at the final concentration of 1% DMSO.
After addition, the cells are placed in cell culture incubator at 37° C. for 48 hours for complete treatment.
After drug treatment, cytotoxicity is measured by Alamar Blue reduction.
The cells are incubated for 48 hours at 37° C. to complete the Alamar Blue reduction.
The final step in the assay is to measure the amount of Alamar Blue reduction. […] The Alamar Blue fluorescence is measured at an excitation of 530 nm and emission of 590 nm.
For the NSCLC project, the cell based assay was screened against a small molecule library of approximately 200,000 compounds. The compound library is stored in our automated robotic freezer (Biophile) at −20° C. in 100% DMSO. Compound freeze and thaw cycles are kept to a minimum. […] This assay was performed on a fully automated linear track robotic platform (CRS F3 Robot System, Thermo Electron Corp., Ontario, Canada) utilizing several integrated peripherals for plate handling, liquid dispensing, and readout detection. […] The microplates are then placed at 37° C. for 48 hours to complete treatment of cells with compounds. Next, 5 ul of alamar blue was added using a liquid dispenser (Flexprop Precision Dispenser, Perkin Elmer, Mass., USA) and incubated for 48 hours at 37° C. The alamar blue prompt fluorescence was measured on Victor V (Victor^3 V, Perkin Elmer, Mass., USA) and output data files were loaded into ORIS (Oncology Research Informatics System, MSKCC, NY, USA), a screening data acquisition and analysis platform.
as §2

PC9 = assay: Dose response study (Alamar Blue), PC9; format: cell-based; conditions: Homo sapiens, PC-9; PC9; 12 point doubling dilution 10 uM to 5 nM; 48 h treatment, alamar blue additional 48 h; read-out: IC50 PC9
Procedure: as §1, §2

H1975 = assay: Non Small Cell Lung Cancer proliferation assay (Alamar Blue reduction), H1975; format: cell-based, human; conditions: Homo sapiens
How it was run: (§3)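 Dose-response run: cells were counted, dispensed at 250 cells/well onto compound, incubated 48 hours at 37° C, then incubated with Alamar Blue for an additional 48 hours before fluorescence measurement. All wells held 1% DMSO final.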

H2122 = assay: Dose response study (Alamar Blue), H2122; format: cell-based; conditions: Homo sapiens, NCI-H2122; H2122; 12 point doubling dilution 10 uM to 5 nM; 48 h treatment, alamar blue additional 48 h; read-out: IC50 H2122
Procedure: as §1, §2

H3255 = assay: Non Small Cell Lung Cancer proliferation assay (Alamar Blue reduction), H3255; format: cell-based, human; conditions: Homo sapiens
How it was run: as §3

H23 = assay: Dose response study (Alamar Blue), H23; format: cell-based; conditions: Homo sapiens, NCI-H23; H23; 12 point doubling dilution 10 uM to 5 nM; 48 h treatment, alamar blue additional 48 h; read-out: IC50 H23
Procedure: as §1, §2

H2030 = assay: Non Small Cell Lung Cancer proliferation assay (Alamar Blue reduction), H2030; format: cell-based, human; conditions: Homo sapiens
How it was run: as §3

[1] = H358, 12 point doubling dilution 10 uM to 5 nM, 48 h treatment, alamar blue additional 48 h, read-out: IC50 H358
[2] = read-out: Dose Response (uM) H358
[3] = NCI-H1975, 48 h, H1975, 12 point doubling dilution 10 uM to 5 nM, 48 h treatment, alamar blue additional 48 h, read-out: IC50 H1975
[4] = NCI-H1975, dose response 10 M to 5 nM, IC50, read-out: Dose Response (uM) H1975
[5] = NCI-H3255, 48 h, H3255, 12 point doubling dilution 10 uM to 5 nM, 48 h treatment, alamar blue additional 48 h, read-out: IC50 H3255
[6] = NCI-H3255, dose response 10 M to 5 nM, IC50, read-out: Dose Response (uM) H3255
[7] = NCI-H2030, 48 h, H2030, 12 point doubling dilution 10 uM to 5 nM, 48 h treatment, alamar blue additional 48 h, read-out: IC50 H2030
[8] = NCI-H2030, dose response 10 M to 5 nM, IC50, read-out: Dose Response (uM) H2030

IC50 (A549) [nM]	IC50 (H460) [nM]	IC50 (H358; [1]) [µM]	IC50 (H358; [2]) [µM]	IC50 (PC9) [nM]	IC50 (H1975; [3]) [µM]	IC50 (H1975; [4]) [µM]	IC50 (H2122) [nM]	IC50 (H3255; [5]) [µM]	IC50 (H3255; [6]) [µM]	IC50 (H2030; [7]) [µM]	IC50 (H2030; [8]) [µM]	SMILES	IC50 at 72 h (in vitro; CytoTox (uM) NHBE) [µM]	IC50 at 72 h (in vitro; CytoTox (uM) WI-38) [µM]	IC50 (H23) [nM]
1200	1300	0.43	0.16	710	0.32	0.16	1260	0.76	0.62	0.31	0.39	O=c1c(Br)c(Br)cnn1-c1ccccc1 [compound 257015]	2.38	3.03	230
2270	3510	1.13	0.55	1570	0.54	0.35	2160	1.86	1.63	0.9	0.89	Cc1cccc(-n2ncc(Cl)c(Cl)c2=O)c1C [compound 257018]	3.89	7.35	240
5310	4260	1.39	0.29	3490	1.27	0.69	6000	2.29	2.27	1.11	1.09	O=c1c(Cl)c(Cl)cnn1-c1ccc(C(F)(F)F)cc1 [compound 267060]	3.44	> 10	1070
1760	1630	0.46	0.24	850	0.31	0.37	1200	1.2	1.34	0.36	0.72	COc1cccc(-n2ncc(Cl)c(Cl)c2=O)c1 [compound 267061]	1.7	3.91	280
> 10000	> 10000	6.66	0.76	8890	6.57	1.93	> 10000	8.35	3.89	6.43	2.75	CCCCc1cccc(-n2ncc(Cl)c(Cl)c2=O)c1 [compound 267063]	5.34	> 10	5470
> 10000	> 10000	> 10	1.24	> 10000	> 10	1.89	> 10000	> 10	> 10	> 10	> 10	Cc1cc(-n2ncc(Cl)c(Cl)c2=O)ccc1Cl [compound 267065]	> 10	> 10	6960
7520	6560	2.81	0.42	5870	2.23	0.19	8720	4.61	1.35	2.34	1.41	O=c1c(Cl)c(Cl)cnn1-c1ccc2c(c1)CCC2 [compound 267066]	1.74	5.37	2040
> 10000	> 10000	> 10	1.38	> 10000	> 10	0.45	> 10000	> 10	3.64	9.19	3.04	Cc1nc2cc(-n3ncc(Cl)c(Cl)c3=O)ccc2s1 [compound 267067]	> 10	> 10	5680

Continued, compound first:

SMILES	IC50 (A549) [nM]	IC50 (H460) [nM]	IC50 (H358; [1]) [µM]	IC50 (H358; [2]) [µM]	IC50 (PC9) [nM]	IC50 (H1975; [3]) [µM]	IC50 (H1975; [4]) [µM]	IC50 (H2122) [nM]	IC50 (H3255; [5]) [µM]	IC50 (H3255; [6]) [µM]	IC50 (H2030; [7]) [µM]	IC50 (H2030; [8]) [µM]	IC50 at 72 h (in vitro; CytoTox (uM) NHBE) [µM]	IC50 at 72 h (in vitro; CytoTox (uM) WI-38) [µM]	IC50 (H23) [nM]
Cc1ccc(-n2ncc(Cl)c(Cl)c2=O)cc1 [compound 257016]	2630	2550	0.78	0.35	1130	0.47	0.32	2070	1.53	1.32	0.51	0.65	3.29	6.43	320
Cc1ccc(-n2ncc(Cl)c(Cl)c2=O)cc1C [compound 257019]	4200	4090	0.79	0.24	1980	0.89	0.29	4380	2.01	1.23	0.8	0.53	3.24	7.02	690
Cc1cc(C)cc(-n2ncc(Cl)c(Cl)c2=O)c1 [compound 257020]	2870	2930	0.62	0.22	1550	0.58	0.27	2210	1.35	0.92	0.57	0.56	3.18	6.78	460
COc1nn(-c2cccc(C)c2)c(=O)c(Cl)c1Cl [compound 257028]	3760	5230	1.83	0.94	2400	1.18	0.65	4040	2.38	1.76	1.79	1.26	5.24	7.52	680
CCc1cccc(-n2ncc(Cl)c(Cl)c2=O)c1 [compound 267062]	2810	2880	0.66	0.24	1510	0.47	0.46	2550	1.51	1.5	0.54	0.72	1.85	6.44	390
Cc1cc(-n2ncc(Cl)c(Cl)c2=O)ccc1Br [compound 267064]	> 10000	> 10000	7.65	0.47	> 10000	7.58	0.71	> 10000	> 10	2.47	7.8	0.88	4.04	> 10	5750
